Earlier results in patent US8048850B2, “Covalent conjugates between artemisinin-related endoperoxides and iron-carrying proteins and methods of use” (University of Washington, priority 2002, dated 2011).

Settings: cancer patient; oral dose of 50 mg per day; intramuscular dose of 60 mg/day; period of 9 months

In the case of `C[C@H]1[C@H](OC(=O)CCC(=O)O)O[C@@H]2O[C@@]3(C)CC[C@H]4[C@H](C)CC[C@@H]1[C@@]24OO3` [artesunate], the adverse side effects is listed as “No apparent adverse side effects”.
